This note sets out measurements from PubChem BioAssay (NCI).

Molecules are shown by their SMILES.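 Exposure lasted 48 hours, with cells grown in 96-well plates and compounds tested at five concentrations. The concentration for 50% growth inhibition is given as GI50. TGI is the concentration that stops growth completely.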

Common to all, as to assay: NCI tumour cell line growth inhibition, 48 h
For assay [1], the system named is 786-0 renal.
The subject of assay [2] is CAKI-1 renal.
Assay [3] relates to NCI-H460 lung.
Assay [4] concerns NCI-H226 lung.
In assay [5] the test system is U251 CNS.
Assay [6] relates to K-562 leukemia.
For assay [7], the system named is EKVX NSCLC.
For assay [8], the system named is PC-3 prostate.
Assay [9] relates to DU-145 prostate.
For assay [10], the system named is T-47D breast.

`COC1=CC(=O)[C@@]2(C)C(C)[C@H](c3ccccc3)[C@H]2C1=O` (stereo partly drawn): the TGI in assay [1], in assay [2], in assay [3], in [4], in assay [5] and in [6] was greater than 100 µM throughout. The same compound registered a TGI in [7] greater than 100 µM.
As to `Cc1nc2nnc(CCCCCCCCc3nnc4nc(C)[nH]n34)n2[nH]1`, the TGI in assay [8], in [1], in [2], in assay [3], in [4] and in assay [5] was greater than 100 µM each time. For the same compound, the TGI in [6], in assay [9] and in assay [7] was greater than 100 µM throughout.
Regarding `N#C/C(=C/c1ccc([N+](=O)[O-])o1)c1ccccc1`, the TGI in [1], in assay [2], in [3], in assay [4], in [5] and in assay [6] was greater than 100 µM each time. Besides, the TGI in [7] is greater than 100 µM.
Regarding `Cc1cc2nc3c(N)nn(CCCN(C)C)c3nc2cc1C`, the TGI in assay [10], in assay [8], in [1], in assay [2], in assay [3] and in assay [5] was greater than 100 µM in each case. Also, the TGI in [9] and in assay [7] was greater than 100 µM in each case.
Regarding `CCN(CC)C(=O)N[C@@H](CC(C)C)C(=O)NC`, the TGI in assay [10], in assay [8], in [1], in assay [2], in assay [3] and in [5] was greater than 100 µM throughout. In addition, the TGI in assay [6], in [9] and in assay [7] was greater than 100 µM each time.
With `Cc1ccc2c(c1)CC1(Cc3cc(C)ccc3C1=O)C2=O`, the TGI in assay [10], in [8], in [1], in assay [2], in [3] and in assay [5] was greater than 100 µM in each case. Also, the TGI in assay [6], in assay [9] and in assay [7] was greater than 100 µM each time.
In the case of `O=C1C=C2SC3C[C@@]24CC1(O)[N+]1=c2c4c(c(O)c4c2=C(C=N4)CC1)N3`, the TGI in [2] is 4 µM; in [3], 4.26 µM; in assay [4], 3.44 µM; in [5], 3.14 µM; in assay [6], 2.72 µM; in [7], 40.9 µM.
For `C=CCSC1=N/C(=C\c2ccc(C)cc2)C(=O)N1CC=C`, the TGI is 78.7 µM in assay [10]; 70 µM in assay [8]; 58.4 µM in assay [1]; greater than 100 µM in assay [2]; greater than 100 µM in [3]; 57.1 µM in assay [5]. Further, the TGI in [6] was 44.9 µM; in assay [9] it was greater than 100 µM; in assay [7], 34.1 µM.
As to `O=[N+]([O-])c1ccc(N=P(c2ccccc2)(c2ccccc2)c2ccccc2)n2nnnc12`, the TGI in [1], in assay [2], in assay [3], in assay [5], in assay [6] and in assay [7] was greater than 100 µM in each case.
Turning to `CC(=O)OC1CCC2(C)C(CCC3C2CCC2(C)C(c4ccc(=O)oc4)C(OC(C)=O)CC32O)C1` (stereo not drawn), the TGI came out at 0.0194 µM in assay [2]; 0.0197 µM in assay [3]; 0.288 µM in assay [4]; 0.137 µM in [5]; 0.141 µM in assay [6]; 0.0279 µM in assay [7].
For the compound `CC(=O)N(C(=O)CC(=O)N1N=C(C)C(N=Nc2cccc([N+](=O)[O-])c2)C1=O)c1ccc(Cl)cc1` (stereo not drawn), the TGI in [10], in assay [8], in [1], in assay [2], in assay [5] and in assay [6] was greater than 10 µM each time. The same compound had a TGI in assay [9] greater than 10 µM.
On to `Cc1ccc(-c2ccc3c(c2)Sc2ccccc2O3)n1C`, for which the TGI is greater than 100 µM in assay [10]; greater than 100 µM in assay [1]; greater than 73.1 µM in assay [2]; greater than 36.5 µM in assay [3]; greater than 100 µM in assay [4]; greater than 100 µM in assay [5]. Moreover, the TGI in assay [6] was greater than 100 µM; in assay [9], greater than 41.5 µM; in assay [7], greater than 88.3 µM.
Take `O=C1CCNC/C1=C\c1ccccc1`: the TGI in [1] is 29 µM; in assay [2], greater than 100 µM; in assay [3], greater than 100 µM; in assay [4] it was 60.8 µM; in assay [5] it was 38 µM; in assay [6], greater than 100 µM. The compound further gave a TGI in [7] greater than 100 µM.
For `CCCC(O)c1ccc2[nH]c3c(C)cc([N+](=O)[O-])c(C)c3c2c1` (stereo not drawn), the TGI in assay [1], in assay [2], in [3], in assay [4], in assay [6] and in assay [7] was greater than 100 µM throughout.
In the case of `O=C(CC(C(=O)c1ccsc1)c1cccs1)c1cccs1` (stereo not drawn), the TGI in [1], in assay [3], in assay [4], in assay [5], in [6] and in assay [7] was greater than 100 µM throughout.
For the compound `C=CC[PH+](c1ccccc1)c1ccccc1.C=CC[PH+](c1ccccc1)c1ccccc1.[Pt+2].[S-]c1nc2ccccc2[nH]1.[S-]c1nc2ccccc2[nH]1`, the GI50 in assay [8] is 1.62 µM; in assay [2], 2.54 µM; in [4], 1.95 µM; in [6] it was 0.62 µM; in [9], 3.33 µM; in assay [7], 2.36 µM. Further, the TGI was 5.58 µM in assay [8]; 12.8 µM in assay [2]; 4.48 µM in [4]; greater than 100 µM in assay [6]; 42.8 µM in assay [9]; greater than 100 µM in [7].
Take `O=C(Cn1c(=O)oc2ccccc21)N(c1ccccc1)c1ccccc1`: the TGI in assay [8], in assay [1], in assay [2], in [3], in [4] and in [5] was greater than 100 µM throughout. For the same compound, the TGI in [6], in assay [9] and in assay [7] was greater than 100 µM in each case.
For `c1c2c(cc3c1OCO3)-c1ncc3cc4c(cc3c1C2)OCO4`, the GI50 in [10] is greater than 100 µM; in assay [8], 0.581 µM; in assay [2], less than 0.0154 µM; in assay [3] it was 0.108 µM; in assay [4], 8.8 µM; in assay [5], less than 0.0369 µM. Also, the values for the GI50 in [6] and in [7] were 0.0101 µM and 19 µM, respectively. The TGI in assay [10] was greater than 100 µM; in assay [8], greater than 100 µM; in [1] it was 44.2 µM; in assay [2], 2.14 µM; in assay [3], greater than 47.1 µM; in [4], greater than 100 µM. Besides, the TGI in assay [5] was 26.9 µM; in assay [6], greater than 64.9 µM; in assay [7], greater than 100 µM.
Regarding `Cc1cc2c3ccccc3n3c2c2c1OC1(C)CCC(C2C1)C3(C)C` (stereo not drawn), the TGI in assay [1], in assay [3], in assay [4], in assay [5] and in [6] was greater than 25 µM each time.
`COc1cc2c(cc1C)NC(=O)/C2=C/c1c(Cl)[nH]c2ccccc12`: the TGI is 34.1 µM in assay [10]; 18.3 µM in assay [8]; 20 µM in assay [1]; 24.7 µM in [2]; 17.1 µM in assay [3]; 16.9 µM in assay [5]. Besides, the values for the TGI in assay [6], in assay [9] and in [7] were greater than 100 µM, 27 µM and 20.9 µM, respectively.
Regarding `COc1ccc(N2C(=O)[C@@H]3[C@@H]4CC(C)CC[C@@H]4c4c([nH]c5ccccc45)[C@@H]3C2=O)cc1` (stereo partly drawn), the TGI in [1] is 20.6 µM; in assay [2] it was greater than 72.9 µM; in assay [3] it was 59.3 µM; in assay [4], 28.5 µM; in [5], 28.8 µM; in assay [6] it was greater than 100 µM. In addition, in assay [7], the TGI was greater than 100 µM.
Turning to `CCOC(=O)CN(CC)C(=O)NC12CC3CC(CC(C3)C1)C2`, the TGI is 483 µM in [2]; 558 µM in [3]; 480 µM in assay [4]; greater than 536 µM in assay [5]; 683 µM in assay [6]; greater than 422 µM in assay [7].
As to `c1cc(CSP234N5CCN2CCN3CCN4CC5)cc(CSP234N5CCN2CCN3CCN4CC5)c1`, the TGI was greater than 100 µM in assay [10]; greater than 100 µM in assay [8]; greater than 100 µM in [1]; greater than 100 µM in [2]; greater than 100 µM in assay [3]; 56.2 µM in assay [5]. For the same compound, the TGI in assay [6], in [9] and in [7] was greater than 100 µM in each case.
`CCOc1c2c(cc3c1C(=O)c1c(OC)cccc1C3=O)C=C(OC)CC2`: the TGI in assay [8], in [1], in assay [2], in [3], in [4] and in assay [5] was greater than 25 µM throughout. In addition, the TGI in [6], in assay [9] and in assay [7] was greater than 25 µM in each case.
For `COC(=O)CC(=O)OC1C[C@@H]2CCC3C(C)(C)CCC[C@]3(C)C23CC[C@@]1(C)C3` (stereo partly drawn), the TGI in [1] was 29.9 µM; in [2], 30.5 µM; in [3] it was 37.5 µM; in assay [4] it was 46.7 µM; in assay [5], 31.2 µM; in [6], greater than 100 µM.
Take `Cc1c2ccncc2c(C)c2c1[nH]c1ccc(O)cc12`: the GI50 in assay [2] is 0.0137 mg/L; in assay [3], 0.0157 mg/L; in [4] it was 0.137 mg/L; in assay [5], 0.042 mg/L; in assay [6], 0.0182 mg/L; in assay [7], 0.0921 mg/L. Besides, the TGI in [2] came to 0.0686 mg/L; in assay [3], 0.0467 mg/L; in [4], 1.08 mg/L; in assay [5] it was 0.35 mg/L; in [6] it was 0.675 mg/L; in assay [7] it was 0.273 mg/L.
As for `CCCCCCNC(=O)CCN(C(=O)O)S(=O)(=O)c1ccc(NC(=O)c2ccccc2)cc1`, the TGI was greater than 100 µM in assay [1]; greater than 100 µM in assay [2]; greater than 62.2 µM in [3]; greater than 100 µM in assay [4]; 42.3 µM in [5]; greater than 71.1 µM in [6]. In assay [7], the TGI was greater than 100 µM.
As to `COC1=CC(=O)C2(C=C1OC)OC[C@H]1Oc3c(ccc4c3C=CC(C)(C)O4)C(=O)[C@H]12` (stereo partly drawn), the TGI in assay [1], in assay [3], in assay [5], in [6] and in assay [7] was greater than 100 µM each time.
Regarding `CN1C/C(=C\c2ccccc2)C2=NN(C(N)=S)[C@H](c3ccccc3)[C@@H]2C1`, the TGI in assay [1], in assay [3], in assay [4], in assay [5], in assay [6] and in assay [7] was greater than 100 µM throughout.
On to `C[N+]1(CC[N+]2(C)CCCC2c2cccnc2)CCCC1c1cccnc1` (stereo not drawn), for which the TGI in [10] was greater than 100 µM; in [8], greater than 100 µM; in assay [1] it was 90.7 µM; in [2] it was greater than 100 µM; in assay [3] it was greater than 100 µM; in [5], greater than 100 µM. Also, the TGI in assay [6] was greater than 100 µM; in assay [9], greater than 100 µM; in assay [7], 86.9 µM.
For the compound `COc1ccc(/C=C(\C#N)c2ccccn2)cc1OC`, the TGI is 65.7 µM in assay [8]; greater than 100 µM in [1]; greater than 100 µM in assay [2]; greater than 100 µM in [3]; 95.8 µM in [4]; 42 µM in assay [5]. For the same compound, the TGI in assay [6] was greater than 100 µM; in assay [9] it was greater than 100 µM; in assay [7] it was 56.9 µM.
